The structures appear in SMILES notation. Values joined by “and” are separate entries in the source; they are usually repeats but may differ in a detail not shown here. Equal entries are not always repeated. Toxic doses and inconclusive results are not listed.

For 15 compounds, T/C results are on record in PubChem BioAssay AID192 (DTP/NCI, 2004).

The test concerns BDF1 mice, B16 melanoma ip, median survival T/C. Description: NCI In Vivo Anticancer Drug Screen. Data for tumor model B16 Melanoma (intraperitoneal) in B6D2F1 (BDF1) mice. Conditions: endpoint: median survival time, higher = longer survival. Summed up: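 Read-out: survival or tumor size, given as treated/control ratio. Controls received vehicle only; animals bore transplantable tumors.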

Setting [1] is: dose: 25.0 mg/kg/injection, schedule: Q01DX009 (ip), vehicle: Klucel (hydroxypropylcellulose) (HPC).
Setting [2] is: dose: 50.0 mg/kg/injection, schedule: Q01DX009 (ip), vehicle: saline with Tween-80.
Setting [3] is: dose: 100.0 mg/kg/injection, schedule: Q01DX009 (ip), vehicle: Klucel (hydroxypropylcellulose) (HPC).
The mark [4] stands for this setting: dose: 200.0 mg/kg/injection, schedule: Q01DX009 (ip), vehicle: Klucel (hydroxypropylcellulose) (HPC).

Turning to `CCCCN(CCCC)/N=C\C1=C2NC(=O)/C(C)=C\C=C/C(OC)C(OC(N)=O)/C(C)=C/C(C)C(O)C(OC)CC(C)CC(=C(OC)C1=O)C2=O` (stereo not given), the T/C is 103 % of control (dose: 12.5 mg/kg/injection, schedule: Q01DX005 (ip), vehicle: other); 94 % of control (dose: 25.0 mg/kg/injection, schedule: Q01DX005 (ip), vehicle: other); 90 % of control (dose: 50.0 mg/kg/injection, schedule: Q01DX005 (ip), vehicle: other); 95 % of control (dose: 100.0 mg/kg/injection, schedule: Q01DX005 (ip), vehicle: other); 93 % of control (dose: 200.0 mg/kg/injection, schedule: Q01DX005 (ip), vehicle: other).

For the compound `NC(=O)N1CCN(CCCN2c3ccccc3Sc3cc(Cl)ccc32)CC1`, the T/C was 92 % of control (dose: 3.12 mg/kg/injection, schedule: Q01DX009 (ip), vehicle: Klucel (hydroxypropylcellulose) (HPC)); 98 % of control (dose: 6.25 mg/kg/injection, schedule: Q01DX009 (ip), vehicle: Klucel (hydroxypropylcellulose) (HPC)); 101 % of control (dose: 12.5 mg/kg/injection, schedule: Q01DX009 (ip), vehicle: Klucel (hydroxypropylcellulose) (HPC)); 106 % of control under setting [1].

Take `Cc1ccc(NC(=O)c2ccc(C(=O)Nc3ccc(C)cc3)cc2)cc1`: the T/C runs as follows: (dose: 12.5 mg/kg/injection, schedule: Q01DX009 (ip), vehicle: saline with Tween-80) 117 % of control; (dose: 25.0 mg/kg/injection, schedule: Q01DX009 (ip), vehicle: saline with Tween-80) 93 % of control; under setting [2], 100 % of control.

Take `CC(C)(C)OC(=O)NCCCCC(NC(=O)OCc1ccccc1)C(=O)ON1C(=O)CCC1=O` (stereo not given): the T/C is 98 % of control under setting [2]; 92 % of control (dose: 100.0 mg/kg/injection, schedule: Q01DX009 (ip), vehicle: saline with Tween-80); 87 % of control (dose: 200.0 mg/kg/injection, schedule: Q01DX009 (ip), vehicle: saline with Tween-80).

Consider `COc1cccc2c1C(=O)c1c(O)c3c(c(O)c1C2=O)C[C@@](O)(C(=O)COC(=O)c1cccnc1)C[C@@H]3OC1CC(N)C(O)C(C)O1` (stereo not given in full), for which the T/C is, setting by setting: (dose: 0.19 mg/kg/injection, schedule: Q01DX001 (ip), vehicle: water) 92 % of control; (dose: 0.38 mg/kg/injection, schedule: Q01DX001 (ip), vehicle: water) 101 % of control; (dose: 0.75 mg/kg/injection, schedule: Q01DX001 (ip), vehicle: water) 108 % of control; (dose: 3.0 mg/kg/injection, schedule: Q01DX001 (ip), vehicle: water) 113 % of control and 239 % of control and 249 % of control; (dose: 6.0 mg/kg/injection, schedule: Q01DX001 (ip), vehicle: water) 103 % of control and 250 % of control and 255 % of control; (dose: 12.0 mg/kg/injection, schedule: Q01DX001 (ip), vehicle: water) 251 % of control and 323 % of control. The T/C (dose: 24.0 mg/kg/injection, schedule: Q01DX001 (ip), vehicle: water) was 325 % of control.

As to `CC1OC(O[C@H]2C[C@](O)(C(C)O)Cc3c(O)c4c(c(O)c32)C(=O)c2c(O)cccc2C4=O)CC(NC=O)C1O` (stereo not given in full), the T/C (dose: 2.0 micrograms/kg/injection, schedule: Q01DX009 (ip), vehicle: saline) is 154 % of control; the T/C (dose: 4.0 micrograms/kg/injection, schedule: Q01DX009 (ip), vehicle: saline) is 154 % of control; the T/C (dose: 8.0 micrograms/kg/injection, schedule: Q01DX009 (ip), vehicle: saline) is 192 % of control; the T/C (dose: 16.0 micrograms/kg/injection, schedule: Q01DX009 (ip), vehicle: saline) is 249 % of control; the T/C (dose: 32.0 micrograms/kg/injection, schedule: Q01DX009 (ip), vehicle: saline) is 195 % of control.

With `Cc1ccc(NC(=O)Nc2ccc(C)c(NC(=O)Nc3ccc(C)cc3C)c2)c(C)c1`, the T/C was 91 % of control under setting [3] and 96 % of control under setting [4].

On to `CNC(=O)Nc1ccc(C)c(Cl)c1`, for which the T/C was 105 % of control under setting [3] and 91 % of control under setting [4].

For the compound `Cc1ccc(NC(=O)COc2cc(Cl)c(Cl)cc2Cl)c([N+](=O)[O-])c1`, the T/C reads like this: under setting [3], 93 % of control; under setting [4], 100 % of control.

In the case of `Nc1ccn(C2OC(CO)C(O)C2O)c(=O)n1` (stereo not given), the T/C was 120 % of control (dose: 6.25 mg/kg/injection, schedule: Q01DX009 (ip), vehicle: saline); 98 % of control (dose: 25.0 mg/kg/injection, schedule: Q01DX009 (ip), vehicle: saline); 71 % of control (dose: 80.0 mg/kg/injection, schedule: Q01DX009 (ip), vehicle: saline); 97 % of control (dose: 100.0 mg/kg/injection, schedule: Q01DX009 (ip), vehicle: saline); 100 % of control (dose: 100.0 mg/kg/injection, schedule: Q04DX003 (ip), vehicle: saline with Tween-80); 94 % of control (dose: 200.0 mg/kg/injection, schedule: Q01DX009 (ip), vehicle: saline). Moreover, the T/C reads like this: (dose: 200.0 mg/kg/injection, schedule: Q04DX003 (ip), vehicle: saline with Tween-80) 92 % of control; (dose: 250.0 mg/kg/injection, schedule: Q04DX009 (ip), vehicle: saline) 100 % of control; (dose: 400.0 mg/kg/injection, schedule: Q04DX003 (ip), vehicle: saline with Tween-80) 92 % of control.

Turning to `O=S(=O)(NN=C(c1ccccc1)c1ccccc1)c1ccccc1`, the T/C under setting [1] was 86 % of control and the T/C (dose: 50.0 mg/kg/injection, schedule: Q01DX009 (ip), vehicle: Klucel (hydroxypropylcellulose) (HPC)) was 91 % of control.

As for `C=C(C)C12OC3(c4ccccc4)OC1C1C4OC4(CO)C(O)C4(O)C(=O)C(C)=CC4C1(O3)C(C)C2OC(=O)/C=C/C=C/c1ccccc1` (stereo not given), the T/C is 107 % of control (dose: 6.3 micrograms/kg/injection, schedule: Q01DX009 (ip), vehicle: saline with Tween-80); 96 % of control (dose: 12.5 micrograms/kg/injection, schedule: Q01DX009 (ip), vehicle: saline with Tween-80); 90 % of control (dose: 25.0 micrograms/kg/injection, schedule: Q01DX009 (ip), vehicle: alcohol); 96 % of control (dose: 25.0 micrograms/kg/injection, schedule: Q01DX009 (ip), vehicle: saline with Tween-80); 91 % of control (dose: 50.0 micrograms/kg/injection, schedule: Q01DX009 (ip), vehicle: alcohol); 96 % of control (dose: 50.0 micrograms/kg/injection, schedule: Q01DX009 (ip), vehicle: saline with Tween-80). The T/C is 88 % of control (dose: 100.0 micrograms/kg/injection, schedule: Q01DX009 (ip), vehicle: alcohol) and 96 % of control (dose: 100.0 micrograms/kg/injection, schedule: Q01DX009 (ip), vehicle: saline with Tween-80).

Consider `C=CCc1cc2c(C)cc(=O)oc2c(C)c1OC(C)=O`, for which the T/C was 95 % of control (dose: 100.0 mg/kg/injection, schedule: Q04DX003 (ip), vehicle: gum acacia); 86 % of control (dose: 200.0 mg/kg/injection, schedule: Q04DX003 (ip), vehicle: gum acacia); 86 % of control (dose: 400.0 mg/kg/injection, schedule: Q04DX003 (ip), vehicle: gum acacia).

Take `C=C1N(C)c2ccccc2C1(C)C`: the T/C is 104 % of control (dose: 1.0 mg/kg/injection, schedule: Q01DX009 (ip), vehicle: saline with Tween-80); 100 % of control (dose: 2.0 mg/kg/injection, schedule: Q01DX009 (ip), vehicle: saline with Tween-80); 98 % of control (dose: 4.0 mg/kg/injection, schedule: Q01DX009 (ip), vehicle: saline with Tween-80); 117 % of control (dose: 13.0 mg/kg/injection, schedule: Q01DX009 (ip), vehicle: saline with Tween-80); 98 % of control (dose: 19.0 mg/kg/injection, schedule: Q01DX009 (ip), vehicle: saline with Tween-80); 104 % of control (dose: 29.0 mg/kg/injection, schedule: Q01DX009 (ip), vehicle: saline with Tween-80). In addition, the T/C (dose: 45.0 mg/kg/injection, schedule: Q01DX009 (ip), vehicle: saline with Tween-80) is 98 % of control.

With `C=C(C)[C@@H]1CC[C@]2(C)CC[C@]3(C)[C@H](CC[C@@H]4[C@@]5(C)CC[C@H](O)C(C)(C)[C@@H]5CC[C@]43C)[C@@H]12`, the T/C reads like this: (dose: 0.75 mg/kg/injection, schedule: Q01DX009 (ip), vehicle: Klucel (hydroxypropylcellulose) (HPC)) 101 % of control; (dose: 1.5 mg/kg/injection, schedule: Q01DX009 (ip), vehicle: Klucel (hydroxypropylcellulose) (HPC)) 95 % of control; (dose: 3.0 mg/kg/injection, schedule: Q01DX009 (ip), vehicle: Klucel (hydroxypropylcellulose) (HPC)) 95 % of control.
